Source: patent publication US20040110847A1, “Compounds extracted from Sap of Rhus succedanea” (priority 2002, published 2004)
Values after ≈ are worked out from the molar mass of the structure shown.

Experiments:
Hela cells = test: Cytotoxicity, acid phosphatase assay, HeLa; type: cell-based, Human; details: 72 h; concentration of 50% growth inhibition
Procedure: (§1) (5). Determination of Cytotoxicity. Four human cancer cell lines, HeLa, Huh7, HCT116 and LoVo were used to assess cytotoxicity of the purified compounds. All the cell lines, except Huh7 cells,^14 were purchased from American Type Culture Collection. The cells were cultured in Dulbecco's modified Eagle medium (DMEM) supplemented with 10% fetal calf serum (FCS), 100 units/ml penicillin and […] streptomycin at 37° C. under 5% CO2. Cells were grown in a 96 well plate (2000 cells/well) with or without the addition of compounds 1, 2 or 3 for 72 h. An acid phosphatase assay^14,15 was then used to quantitate the viable cells. Briefly, after the media were aspirated, the cells were washed with phosphate buffer saline (PBS) and then incubated with 100 μl of 0.1M sodium acetate buffer containing 10 mM p-nitrophenyl phosphate and 0.1% Triton X-100, and incubated at 37° C. for 1 h. The reaction was stopped by the addition of 10 μl of 1 N NaOH and coloration of the cells was measured at 410 nm by an ELISA reader. The concentrations of 50% growth inhibition (IC50) were interpolated from dose-dependent growth inhibition curves. The data HeLa, Huh7, HCT116 and LoVo presented were the averages derived from a minimum of triplicate independent experiments.

[1] = test system: four human cancer cell lines (HeLa, Huh7, HCT116, LoVo); test: Cytotoxicity evaluation across four human cancer cell lines; type: cell-based
Procedure: as §1

HCT116 cells = test: Cytotoxicity, acid phosphatase assay, HCT116; type: cell-based, Human; details: 72 h; concentration of 50% growth inhibition
Procedure: as §1

Huh7 cells = test: Cytotoxicity, acid phosphatase assay, Huh7; type: cell-based, Human; details: 72 h; concentration of 50% growth inhibition
Procedure: as §1

[2] = Antioxidative potency (AOP), iron/ascorbate system with linoleic acid as substrate; type: biochemical; details: compared with BHT; FIG. 2; ca. 1, 4, 10 ppm; 37° C., 5 and 30 min
Procedure: (4). Determination of Antioxidative Activity: The procedure using an iron/ascorbate system reported by Yoon,^9 Chiou,^10 Decker,^11 Tamura,^12 and Sasaki^13 was modified. In a beaker (50 ml), 100 mg of linoleic acid, 1.0 g of Tween 20, and 20 ml of Tris-buffer (pH 7.4, 50 mM) were combined, gently shaken and emulsified with a sonicator for 2 min. An iron/ascorbate solution containing 30 μM FeCl3 and 200 μM ascorbic acid in the Tris-buffer (pH 7.4, 50 mM) was prepared daily. In a series of 1.5-ml microfuge tubes, 0.5 ml of the emulsified linoleic acid, 0.5 ml of the iron/ascorbate solution, and 0.1 ml of methanol containing various concentrations of the three compounds or BHT including 0, 10, 40 and 100 ppm (μg/ml) (resulting in ca. 0, 1, 4 and 10 ppm of concentration after combination) were deposited. Prior to incubation, the tubes were immersed and kept in an ice bath to minimize any reactions. To initiate reaction, the mixtures in the tubes were mixed by hand (gently to prevent foaming) and placed into the wells of a thermal block at 37° C. for 5 and 30 min. After incubation, the produced conjugated diene hydroperoxide (CDHP) contents were determined spectrophotometrically. […] The absorbance (A) at 234 nm of the mixture was measured. […] The percentage of AOP (capacity to inhibit peroxide formation in linoleic acid) was calculated as follows. […]

Lovo cells = test: Cytotoxicity, acid phosphatase assay, LoVo; type: cell-based, Human; details: 72 h; concentration of 50% growth inhibition
Procedure: as §1

SMILES | IC50 Hela cells (Hela cells) | cytotoxic activity against four human cancer cell lines [1] | IC50 HCT116 cells (HCT116 cells) | IC50 Huh7 cells (Huh7 cells) | antioxidative potency (AOP) [2] | IC50 Lovo cells (Lovo cells)
C/C=C/C=C/C/C=C\CCCCCCCCCc1cc(O)ccc1O [Compound 1, 10′(Z),13′(E),15′(E)-heptadecatrienylhydroquinone] | 2.8 µg/mL (≈ 8.17 µM) | significant cytotoxic activity | 2.0 µg/mL (≈ 5.84 µM) | 3.9 µg/mL (≈ 11.4 µM) | close to that of BHT | 4.5 µg/mL (≈ 13.1 µM)
CCC/C=C/C/C=C\CCCCCCCCCc1cc(O)ccc1O [Compound 2, 10′(Z),13′(E)-heptadecadienylhydroquinone] | 4.6 µg/mL (≈ 13.4 µM) | significant cytotoxic activity | 3.5 µg/mL (≈ 10.2 µM) | 6.0 µg/mL (≈ 17.4 µM) | close to that of BHT | 5.6 µg/mL (≈ 16.3 µM)
